ChEMBL document CHEMBL3232722, “Synthesis and kinase inhibitory activity of new sulfonamide derivatives of pyrazolo[4,3-e][1,2,4]triazines” (Eur J Med Chem, 2014)
The source made the active and inactive calls. No cut-off for these calls is given here.

What was measured:
CCRF-CEM = assay: In vitro antiproliferative activity against human CCRF-CEM cells assessed as decrease in cell viability after 24 hrs by MTT assay; format: functional, cell-based
[1] = biological target: Cyclin-dependent kinase 2/cyclin E1 (Homo sapiens, UniProt P24941); assay: Inhibition of CDK2/cyclin E (unknown origin) expressed in Sf9 cells using histone H1 as substrate in presence of [gamma33P]ATP
[2] = biological target: Casein kinase II subunit alpha (Homo sapiens, UniProt P68400); assay: Inhibition of CK2alpha1 (unknown origin) using casein as substrate in presence of [gamma33P]ATP
MDA-MB-231 [3] = assay: In vitro antiproliferative activity against human MDA-MB-231 cells assessed as decrease in cell vaibility after 24 hrs by MTT assay; format: functional, cell-based; details: for IC50: MDA-MB-231, 24 h
[4] = biological target: T1, Bcr/Abl fusion protein (Homo sapiens) (UniProt P00519+P11274); assay: Inhibition of Bcr/Abl kinase in human K562 cells assessed as decrease in STAT5 phosphorylation at Tyr694 after 1 hr by immunoblot analysis; format: cell-based
MCF7 [5] = assay: In vitro antiproliferative activity against human MCF7 cells assessed as decrease cell viability after 24 hrs by MTT assay; format: functional, cell-based; details: for IC50: MCF7, 24 h
K562 [6] = assay: In vitro antiproliferative activity against human K562 cells assessed as decrease in cell viability after 24 hrs by MTT assay; format: functional, cell-based; details: for IC50: K562, 24 h
[7] = biological target: T2, Tyrosine-protein kinase ABL1 (Homo sapiens, UniProt P00519); assay: Inhibition of Abl kinase tyrosine phosphorylation in human K562 cells at 1 to 100 uM after 1 hr by immunoblot analysis; format: cell-based
HL-60 = assay: In vitro antiproliferative activity against human HL60 cells assessed as decrease in cell viability after 24 hrs by MTT assay; format: functional, cell-based; details: for IC50: HL-60, 24 h, read-out: IC50
[8] = (§1) In vitro antiproliferative activity against human BV173 cells assessed as decrease in cell viability after 24 hrs by MTT assay; format: functional, cell-based; details: BV-173, 24 h
BV-173 = assay: as §1; format: functional, cell-based
K562 [9] = assay: Induction of apoptosis in human K562 cells assessed as increase in sub-diploid cell population at 10 to 100 uM after 24 hrs by propidium iodide staining based flow cytometry; format: functional
MCF7 [10] = assay: Cytostatic activity against human MCF7 cells assessed as decrease in [3H]thymidine incorporation into DNA after 24 hrs by liquid scintillation counting analysis; format: functional, cell-based
K562 [11] = assay: Inhibition of tyrosine phosphorylation of protein with molecular weight between 40 and 60 kDa in human K562 cells at 1 to 100 uM after 1 hr by immunoblot analysis; format: functional, cell-based
[12] = biological target: T2, Tyrosine-protein kinase ABL1; assay: Inhibition of recombinant Abl kinase (unknown origin) expressed in Sf9 cells using GGEAIYAAPFKK as substrate in presence of [gamma33P]ATP
[13] = biological target: T1, Bcr/Abl fusion protein (Homo sapiens); assay: Inhibition of Bcr/Abl kinase tyrosine phosphorylation in human K562 cells at 1 to 100 uM after 1 hr by immunoblot analysis; format: cell-based
MDA-MB-231 [14] = assay: Cytostatic activity against human MDA-MB-231 cells assessed as decrease in [3H]thymidine incorporation into DNA after 24 hrs by liquid scintillation counting analysis; format: functional, cell-based
[15] = biological target: T2, Tyrosine-protein kinase ABL1; assay: Inhibition of recombinant Abl kinase (unknown origin) expressed in Sf9 cells assessed as residual enzyme activity using GGEAIYAAPFKK as substrate at 10 uM in presence of [gamma33P]ATP
[16] = biological target: T2, Tyrosine-protein kinase ABL1; assay: Inhibition of recombinant Abl kinase (unknown origin) expressed in Sf9 cells assessed as residual enzyme activity using GGEAIYAAPFKK as substrate at 25 uM in presence of [gamma33P]ATP
[17] = biological target: T2, Tyrosine-protein kinase ABL1; assay: Inhibition of recombinant Abl kinase (unknown origin) expressed in Sf9 cells assessed as residual enzyme activity using GGEAIYAAPFKK as substrate at 50 uM in presence of [gamma33P]ATP

Sequence of Casein kinase II subunit alpha (P68400 whole entry): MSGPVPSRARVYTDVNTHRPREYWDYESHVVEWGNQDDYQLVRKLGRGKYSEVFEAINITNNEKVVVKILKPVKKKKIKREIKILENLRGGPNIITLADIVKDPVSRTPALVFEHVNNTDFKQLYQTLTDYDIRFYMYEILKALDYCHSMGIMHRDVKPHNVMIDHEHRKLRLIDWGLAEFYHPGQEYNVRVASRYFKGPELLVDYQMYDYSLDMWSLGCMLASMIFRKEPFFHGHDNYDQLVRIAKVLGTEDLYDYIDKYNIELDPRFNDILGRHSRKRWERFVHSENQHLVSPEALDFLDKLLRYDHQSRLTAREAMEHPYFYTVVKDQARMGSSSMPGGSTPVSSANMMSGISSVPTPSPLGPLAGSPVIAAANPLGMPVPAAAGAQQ
T2 sequence (P00519 whole entry): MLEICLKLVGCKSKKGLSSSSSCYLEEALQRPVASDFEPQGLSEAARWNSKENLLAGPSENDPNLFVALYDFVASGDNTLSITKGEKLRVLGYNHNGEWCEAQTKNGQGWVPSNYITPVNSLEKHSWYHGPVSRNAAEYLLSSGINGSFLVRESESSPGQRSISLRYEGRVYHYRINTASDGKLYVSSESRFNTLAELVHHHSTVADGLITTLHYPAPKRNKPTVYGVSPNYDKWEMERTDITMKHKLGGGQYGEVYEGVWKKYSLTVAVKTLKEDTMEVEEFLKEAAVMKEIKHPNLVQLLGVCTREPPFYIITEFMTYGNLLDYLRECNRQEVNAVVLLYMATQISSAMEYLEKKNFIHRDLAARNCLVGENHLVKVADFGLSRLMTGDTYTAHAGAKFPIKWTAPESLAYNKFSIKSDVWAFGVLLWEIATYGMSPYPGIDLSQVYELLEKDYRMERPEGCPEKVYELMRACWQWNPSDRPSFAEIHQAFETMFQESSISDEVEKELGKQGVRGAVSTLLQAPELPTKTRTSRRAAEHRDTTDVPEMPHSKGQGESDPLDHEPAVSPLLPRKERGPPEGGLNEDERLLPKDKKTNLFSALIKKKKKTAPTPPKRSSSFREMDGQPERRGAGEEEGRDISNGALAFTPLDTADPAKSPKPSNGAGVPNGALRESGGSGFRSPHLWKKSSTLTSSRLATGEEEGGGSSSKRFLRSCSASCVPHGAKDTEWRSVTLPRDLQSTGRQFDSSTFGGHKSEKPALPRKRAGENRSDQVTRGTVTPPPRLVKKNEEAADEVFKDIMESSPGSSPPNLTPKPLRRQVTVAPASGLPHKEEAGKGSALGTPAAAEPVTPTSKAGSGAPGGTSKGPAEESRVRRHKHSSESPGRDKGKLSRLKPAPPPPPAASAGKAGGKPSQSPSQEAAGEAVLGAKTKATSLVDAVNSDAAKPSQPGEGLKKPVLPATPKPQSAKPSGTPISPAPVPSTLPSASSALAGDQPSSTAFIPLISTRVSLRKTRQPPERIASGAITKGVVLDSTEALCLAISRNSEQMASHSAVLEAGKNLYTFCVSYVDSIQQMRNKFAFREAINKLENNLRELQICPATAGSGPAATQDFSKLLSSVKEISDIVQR
T1 sequence (P00519 whole entry, looked up, the tested form may be a part): as the sequence (P00519 whole entry) above
T1 sequence (P11274 whole entry, looked up, the tested form may be a part): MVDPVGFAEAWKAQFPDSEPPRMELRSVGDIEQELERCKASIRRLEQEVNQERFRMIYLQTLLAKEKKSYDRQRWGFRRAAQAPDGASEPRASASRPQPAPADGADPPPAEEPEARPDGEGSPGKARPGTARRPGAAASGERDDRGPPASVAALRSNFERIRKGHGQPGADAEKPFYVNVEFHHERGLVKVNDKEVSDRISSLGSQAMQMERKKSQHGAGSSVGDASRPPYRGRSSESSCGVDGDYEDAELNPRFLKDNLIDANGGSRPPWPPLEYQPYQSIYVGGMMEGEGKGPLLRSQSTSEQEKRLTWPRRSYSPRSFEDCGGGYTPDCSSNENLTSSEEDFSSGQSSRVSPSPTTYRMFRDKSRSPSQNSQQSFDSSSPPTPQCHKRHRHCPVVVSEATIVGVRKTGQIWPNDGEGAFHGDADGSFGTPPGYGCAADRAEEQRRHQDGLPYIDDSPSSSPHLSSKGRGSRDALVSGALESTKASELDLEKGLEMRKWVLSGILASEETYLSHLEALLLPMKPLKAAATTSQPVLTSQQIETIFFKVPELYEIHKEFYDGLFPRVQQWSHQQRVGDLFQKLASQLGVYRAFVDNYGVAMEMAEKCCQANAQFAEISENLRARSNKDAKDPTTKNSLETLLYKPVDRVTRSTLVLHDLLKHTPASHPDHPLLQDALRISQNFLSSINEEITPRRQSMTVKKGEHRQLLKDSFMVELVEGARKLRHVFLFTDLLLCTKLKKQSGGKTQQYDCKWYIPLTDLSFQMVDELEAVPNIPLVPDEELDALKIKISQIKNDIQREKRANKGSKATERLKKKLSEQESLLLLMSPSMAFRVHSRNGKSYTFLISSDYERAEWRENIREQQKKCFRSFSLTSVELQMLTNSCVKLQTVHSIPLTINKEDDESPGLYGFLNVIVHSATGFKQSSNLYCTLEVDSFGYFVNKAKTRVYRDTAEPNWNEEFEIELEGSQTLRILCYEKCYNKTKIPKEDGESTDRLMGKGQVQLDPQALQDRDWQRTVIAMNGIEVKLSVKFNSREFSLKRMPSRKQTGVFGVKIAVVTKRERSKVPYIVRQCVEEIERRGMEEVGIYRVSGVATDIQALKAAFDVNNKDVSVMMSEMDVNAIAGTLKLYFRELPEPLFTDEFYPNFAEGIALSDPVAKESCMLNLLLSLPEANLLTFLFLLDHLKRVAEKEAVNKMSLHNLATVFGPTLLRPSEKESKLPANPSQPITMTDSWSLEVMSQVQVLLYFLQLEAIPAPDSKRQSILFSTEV

Row | IC50 (CCRF-CEM) | IC50 [1] | IC50 [2] | IC50 (MDA-MB-231 [3]) | IC50 (MCF7 [5]) | IC50 (K562 [6]) | IC50 (HL-60) | IC50 (MCF7 [10]) | IC50 [12] | IC50 (MDA-MB-231 [14]) | Activity [15] | Structure (SMILES) | inhibition (CCRF-CEM) | inhibition (MDA-MB-231 [3]) | inhibition (MCF7 [5]) | inhibition (K562 [6]) | inhibition (HL-60) | IC50 [8] | inhibition (BV-173) | inhibition (MCF7 [10]) | inhibition (MDA-MB-231 [14]) | further results
1 | 56 µM | 34.9 µM | > 50 µM | 120 µM | 126 µM | 77 µM | 42 µM | 85 µM | 15 µM | 90 µM |  | Cc1nn(C)c2nnc(Nc3ccc(S(=O)(=O)NCCN)cc3)nc12 | Dose-dependent effect | Dose-dependent effect | Dose-dependent effect | Dose-dependent effect | Dose-dependent effect | 39 µM | Dose-dependent effect | Dose-dependent effect | Dose-dependent effect | inhibition [4]: Dose-dependent effect; inhibition [7]: inactive; Activity (K562 [9]): inactive; inhibition (K562 [11]): inactive; inhibition [13]: inactive
2 | 50 µM | > 50 µM | > 50 µM | > 200 µM | > 200 µM | 106 µM | 58 µM | > 200 µM | 33 µM | > 200 µM | 95% | Cc1nn(C)c2nnc(Nc3ccc(S(N)(=O)=O)cc3)nc12 | Dose-dependent effect | Dose-dependent effect | Dose-dependent effect | Dose-dependent effect | Dose-dependent effect | 45 µM | Dose-dependent effect | Dose-dependent effect | Dose-dependent effect | Activity [16]: 63%; Activity [17]: 33%
3 | 30 µM | > 50 µM | > 50 µM | > 200 µM | > 200 µM | 102 µM | 56 µM | > 200 µM | > 50 µM | > 200 µM | 100% | Cc1nn(C)c2nnc(Nc3ccc(S(=O)(=O)N4CCCC4)cc3)nc12 | Dose-dependent effect | Dose-dependent effect | Dose-dependent effect | Dose-dependent effect | Dose-dependent effect | 47 µM | Dose-dependent effect | Dose-dependent effect | Dose-dependent effect | Activity [16]: 100%; Activity [17]: 90%
4 |  | 1.8 µM |  |  |  |  |  |  |  |  |  | O=C(O)c1ccc2c(c1)nc(Nc1cccc(Cl)c1)c1ccncc12 [SILMITASERTIB] |  |  |  |  |  |  |  |  |  | 
5 | 54 µM | > 50 µM | > 50 µM | > 200 µM | > 200 µM | > 200 µM | 40 µM | > 200 µM | > 50 µM | > 200 µM | 80% | Cc1nn(C)c2nnc(Nc3ccc(S(=O)(=O)NC(CO)C(C)C)cc3)nc12 (stereo unspecified) | Dose-dependent effect | Dose-dependent effect | Dose-dependent effect | Dose-dependent effect | Dose-dependent effect | 58 µM | Dose-dependent effect | Dose-dependent effect | Dose-dependent effect | 

Further lines, the compound ahead of its results:

Row | Structure (SMILES) | IC50 (CCRF-CEM) | IC50 [1] | IC50 [2] | IC50 (MDA-MB-231 [3]) | IC50 (MCF7 [5]) | IC50 (K562 [6]) | IC50 (HL-60) | IC50 (MCF7 [10]) | IC50 [12] | IC50 (MDA-MB-231 [14]) | Activity [15] | inhibition (CCRF-CEM) | inhibition (MDA-MB-231 [3]) | inhibition (MCF7 [5]) | inhibition (K562 [6]) | inhibition (HL-60) | IC50 [8] | inhibition (BV-173) | inhibition (MCF7 [10]) | inhibition (MDA-MB-231 [14]) | further results
6 | Cc1nn(C)c2nnc(Nc3ccc(S(=O)(=O)NCCO)cc3)nc12 | 49 µM | > 50 µM | > 50 µM | > 200 µM | > 200 µM | 100 µM | 42 µM | > 200 µM | 39 µM | > 200 µM |  | Dose-dependent effect | Dose-dependent effect | Dose-dependent effect | Dose-dependent effect | Dose-dependent effect | 41 µM | Dose-dependent effect | Dose-dependent effect | Dose-dependent effect | 
7 | Cc1nn(C)c2nnc(Nc3ccc(S(=O)(=O)NCCN4CCOCC4)cc3)nc12 | 64 µM | > 50 µM | > 50 µM | 125 µM | 146 µM | 96 µM | 41 µM | 99 µM | 20 µM | 120 µM |  | Dose-dependent effect | Dose-dependent effect | Dose-dependent effect | Dose-dependent effect | Dose-dependent effect | 39 µM | Dose-dependent effect | Dose-dependent effect | Dose-dependent effect | 
8 | O=C(O)CCCc1ccc(N(CCCl)CCCl)cc1 [CHLORAMBUCIL] | 21 µM |  |  | 93 µM | 97 µM | 84 µM | 38 µM | 56 µM |  | 49 µM |  |  |  |  |  |  | 34 µM |  |  |  | 
9 | Cc1nn(C)c2nnc(Nc3ccc(S(=O)(=O)N4CCN(C)CC4)cc3)nc12 | 36 µM | > 50 µM | > 50 µM | 99 µM | 102 µM | 66 µM | 49 µM | 87 µM | > 50 µM | 80 µM | 60% | Dose-dependent effect | Dose-dependent effect | Dose-dependent effect | Dose-dependent effect | Dose-dependent effect | 40 µM | Dose-dependent effect | Dose-dependent effect | Dose-dependent effect | Activity [16]: 55%; Activity [17]: 51%
10 | Cc1nn(C)c2nnc(Nc3ccc(S(=O)(=O)N4CCOCC4)cc3)nc12 | 69 µM | > 25 µM | > 25 µM | > 200 µM | > 200 µM | 90 µM | 39 µM | > 200 µM | > 25 µM | > 200 µM | 88% | Dose-dependent effect | Dose-dependent effect | Dose-dependent effect | Dose-dependent effect | Dose-dependent effect | 58 µM | Dose-dependent effect | Dose-dependent effect | Dose-dependent effect | Activity [16]: 80%
11 | Cc1nn(C)c2nnc(Nc3ccc(S(=O)(=O)NCC(O)CO)cc3)nc12 (stereo unspecified) | 57 µM | > 50 µM | > 50 µM | 140 µM | 200 µM | 101 µM | 44 µM | 130 µM | 34 µM | 130 µM | 81% | Dose-dependent effect | Dose-dependent effect | Dose-dependent effect | Dose-dependent effect | Dose-dependent effect | 42 µM | Dose-dependent effect | Dose-dependent effect | Dose-dependent effect | Activity [16]: 56%; Activity [17]: 45%
12 | Cc1nn(C)c2nnc(Nc3ccc(S(=O)(=O)N4CCCCC4)cc3)nc12 | 30 µM | > 25 µM | > 25 µM | 140 µM | 200 µM | 98 µM | 24 µM | 150 µM | > 25 µM | 135 µM | 100% | Dose-dependent effect | Dose-dependent effect | Dose-dependent effect | Dose-dependent effect | Dose-dependent effect | 36 µM | Dose-dependent effect | Dose-dependent effect | Dose-dependent effect | Activity [16]: 98%
